Results on twelve molecules are retold here after patent US20240409585A1, “MACROCYCLIC IMMUNOMODULATORS” (priority 2021, published 2024).

The structures appear in SMILES notation. Numbered stars: 1 amine (or outer) side, 2 acyl side, 3 side chain; on linkers, the order of the positions; unused ones are H or OH. Bridge positions count the residues as written; N and C are the ends. Square brackets hold non-standard residues; d marks the D form. Peptide text beside a SMILES is read from it. * marks the point of attachment. Bip(4'-COOH) = N[C@@H](Cc1ccc(-c2ccc(C(=O)O)cc2)cc1)C(=O)O; Bip(4'-NHAc) = CC(=O)Nc1ccc(-c2ccc(C[C@H](N)C(=O)O)cc2)cc1; X31 = N=C(N)Nc1ccc(-c2ccc(C[C@H](N[*:1])C(=O)[*:2])cc2)cc1; Phe(3-CF3) = N[C@@H](Cc1cccc(C(F)(F)F)c1)C(=O)O; Ala(morpholin-4-yl) = N[C@@H](CN1CCOCC1)C(=O)O; Phe(4-CONH2) = NC(=O)c1ccc(C[C@H](N)C(=O)O)cc1; Phe(4-COOH) = N[C@@H](Cc1ccc(C(=O)O)cc1)C(=O)O; Bip = N[C@@H](Cc1ccc(-c2ccccc2)cc1)C(=O)O; Abu(3R-NH2) = C[C@@H](N)[C@H](N)C(=O)O; Phe(3-Me) = Cc1cccc(C[C@H](N)C(=O)O)c1; Abu(3S-NH2) = C[C@H](N)[C@H](N)C(=O)O; Glutaryl = O=C(CCCC(=O)[*:2])[*:1]; Val(3-OH) = CC(C)(O)[C@H](N)C(=O)O; hPhe = N[C@@H](CCc1ccccc1)C(=O)O; Cha = N[C@@H](CC1CCCCC1)C(=O)O; aThr = C[C@H](O)[C@H](N)C(=O)O; dDab = NCC[C@@H](N)C(=O)O; Carboxymethyl = O=C(O)C*; NMeA = CN[C@@H](C)C(=O)O; Orn = NCCC[C@H](N)C(=O)O; Dab = NCC[C@H](N)C(=O)O; Dap = NC[C@H](N)C(=O)O

The target of one assay is T1, Alexa fluor-647 labeled human PD-L1-Ig binding to Jurkat cell line over-expressing human PD-1 (Homo sapiens, UniProt Q15116).
T1 construct: expressed in transfected cells; host or cells: Jurkat
T1 sequence (Q15116 25-288): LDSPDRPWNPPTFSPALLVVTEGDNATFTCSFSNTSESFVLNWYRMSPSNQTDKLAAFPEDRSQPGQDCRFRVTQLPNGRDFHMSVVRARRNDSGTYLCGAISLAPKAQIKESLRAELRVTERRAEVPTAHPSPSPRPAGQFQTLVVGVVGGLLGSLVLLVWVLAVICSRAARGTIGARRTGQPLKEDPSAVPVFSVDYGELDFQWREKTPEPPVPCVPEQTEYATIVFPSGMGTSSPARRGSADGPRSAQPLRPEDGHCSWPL
Put plainly: Jurkat-PD-1 Cell Binding High-Content Screening Assay (CBA): Method 3 (Alexa fluor-647 labeled PD-L1-Ig). The note with it: Jurkat-PD-1 cells, Alexa fluor-647 labeled PD-L1-Ig 177 nM; head μM; read-out: CBA Method 3 μM. Put shortly: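 Jurkat cells over-expressing human PD-1 in RPMI/10% FCS were preincubated 2 h at 37 °C with compound, then exposed 1 h to Alexa fluor-647 labeled human PD-L1-Ig (177 nM final). Cells fixed in 4% paraformaldehyde with Hoechst 33342 and binding quantified by high-content imaging.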
On to `CC(C)C[C@H]1NC(=O)[C@H](C)N(C)C(=O)[C@H](CCC(N)=O)NC(=O)[C@H](Cc2ccc(-c3ccccc3)cc2)NC(=O)[C@H](CCc2ccccc2)NC(=O)[C@H](Cc2cccc(C(F)(F)F)c2)NC(=O)[C@H](CC(=O)O)NC(=O)[C@H](Cc2ccc(OCC(=O)O)cc2)NC(=O)[C@H]([C@@H](C)N)NC(=O)CSC[C@@H](C(=O)N[C@@H](CCN)C(N)=O)NC(=O)[C@H](CCC(N)=O)NC(=O)[C@H](C(C)C)NC(=O)[C@H](CC2CCCCC2)NC(=O)[C@H](CCN)NC1=O` [Example 5223] ({CH2CO}-[Abu(3R-NH2)]Y(Carboxymethyl)D[Phe(3-CF3)][hPhe][Bip]Q[NMeA][dL][Dab][Cha]VQC[Dab]-NH2; thioether N-14), for which the IC50 came out at 0.05 µM. The same measure, in the same setting: for `Cc1cccc(C[C@@H]2NC(=O)[C@H](CC(=O)O)NC(=O)[C@H](Cc3ccc(OCC(=O)O)cc3)NC(=O)[C@H](CN3CCOCC3)NC(=O)CSC[C@@H](C(=O)N[C@@H](CCN)C(N)=O)NC(=O)[C@H](CCCN)NC(=O)[C@H](C(C)C)NC(=O)[C@H](CC3CCCCC3)NC(=O)[C@H](CCN)NC(=O)[C@@H](CC(C)C)NC(=O)[C@H](C)N(C)C(=O)[C@H](CCC(N)=O)NC(=O)[C@H](Cc3ccc(-c4ccccc4)cc3)NC(=O)[C@H](CCc3ccccc3)NC2=O)c1` [Example 5217] ({CH2CO}-[Ala(morpholin-4-yl)]Y(Carboxymethyl)D[Phe(3-Me)][hPhe][Bip]Q[NMeA][dL][Dab][Cha]V[Orn]C[Dab]-NH2; thioether N-14) the value was 0.26 µM; for `CC(C)C[C@H]1NC(=O)[C@H](C)N(C)C(=O)[C@H](Cc2ccc(C(=O)O)cc2)NC(=O)[C@H](Cc2ccc(-c3ccccc3)cc2)NC(=O)[C@H](CCc2ccccc2)NC(=O)[C@H](Cc2cccc(C(F)(F)F)c2)NC(=O)[C@H](CC(=O)O)NC(=O)[C@H](Cc2ccc(C(=O)O)cc2)NC(=O)[C@H](CN2CCOCC2)NC(=O)CSC[C@@H](C(=O)N[C@@H](CCN)C(N)=O)NC(=O)[C@H](CNC(=O)CCCC(=O)O)NC(=O)[C@H](C(C)C)NC(=O)[C@H](CC2CCCCC2)NC(=O)[C@H](CCN)NC1=O` [Example 5209] ({CH2CO}-[Ala(morpholin-4-yl)][Phe(4-COOH)]D[Phe(3-CF3)][hPhe][Bip][Phe(4-COOH)][NMeA][dL][Dab][Cha]V[Dap](Glutaryl)C[Dab]-NH2; thioether N-14), 0.02 µM.

In the case of `CC(=O)Nc1ccc(-c2ccc(C[C@@H]3NC(=O)[C@H](Cc4cccc(C)c4)NC(=O)[C@H](CC(=O)O)NC(=O)[C@H](Cc4ccc(-c5ccc(C(=O)O)cc5)cc4)NC(=O)[C@H]([C@@H](C)O)NC(=O)CSC[C@@H](C(=O)N[C@@H](CCN)C(N)=O)NC(=O)[C@H](Cc4cnc[nH]4)NC(=O)[C@H](C(C)(C)O)NC(=O)[C@H](CC4CCCCC4)NC(=O)[C@H](CCN)NC(=O)[C@@H](CC(C)C)NC(=O)[C@H](C)N(C)C(=O)[C@H](Cc4ccc(OCC(=O)O)cc4)NC(=O)[C@H](Cc4ccc(-c5ccccc5)cc4)NC3=O)cc2)cc1` [Example 5132] ({CH2CO}-T[Bip(4'-COOH)]D[Phe(3-Me)][Bip(4'-NHAc)][Bip]Y(Carboxymethyl)[NMeA][dL][Dab][Cha][Val(3-OH)]HC[Dab]-NH2; thioether N-14), the IC50 is 0.02 µM. The same measure, in the same setting: for `Cc1cccc(C[C@@H]2NC(=O)[C@H](CC(=O)O)NC(=O)[C@H](Cc3ccc(OCC(=O)O)cc3)NC(=O)[C@H](CC3CCCCC3)NC(=O)CSC[C@@H](C(=O)N[C@@H](CCN)C(N)=O)NC(=O)[C@H](CCC(=O)O)NC(=O)[C@H](C(C)C)NC(=O)[C@H](CC3CCCCC3)NC(=O)[C@H](CCN)NC(=O)[C@@H](CC(C)C)NC(=O)[C@H](C)N(C)C(=O)[C@H](CCC(N)=O)NC(=O)[C@H](Cc3ccc(-c4ccccc4)cc3)NC(=O)[C@H](CCc3ccccc3)NC2=O)c1` [Example 5214] ({CH2CO}-[Cha]Y(Carboxymethyl)D[Phe(3-Me)][hPhe][Bip]Q[NMeA][dL][Dab][Cha]VEC[Dab]-NH2; thioether N-14) the value was 0.03 µM.

With `CC(C)C[C@H]1NC(=O)[C@H](C)N(C)C(=O)[C@H](Cc2ccc(-c3ccc(NC(=N)N)cc3)cc2)NC(=O)[C@H](Cc2ccc(-c3ccccc3)cc2)NC(=O)[C@H](Cc2ccc(OCC(=O)O)cc2)NC(=O)[C@H](Cc2cccc(C(F)(F)F)c2)NC(=O)[C@H](CC(=O)O)NC(=O)[C@H](Cc2ccc(C(=O)O)cc2)NC(=O)[C@H]([C@H](C)N)NC(=O)CSC[C@@H](C(=O)N[C@H](CCN)C(N)=O)NC(=O)[C@H](CO)NC(=O)[C@H]([C@H](C)O)NC(=O)[C@H](CC2CCCCC2)NC(=O)[C@H](CCN)NC1=O` [Example 5231] ({CH2CO}-[Abu(3S-NH2)][Phe(4-COOH)]D[Phe(3-CF3)]Y(Carboxymethyl)[Bip][X31][NMeA][dL][Dab][Cha][aThr]SC[dDab]-NH2; thioether N-14), the IC50 was found to be 0.14 µM. Take `Cc1cccc(C[C@@H]2NC(=O)[C@H](CC(=O)O)NC(=O)[C@H](Cc3ccc(OCC(=O)O)cc3)NC(=O)[C@H](CCc3ccccc3)NC(=O)CSC[C@@H](C(=O)N[C@@H](CCN)C(N)=O)NC(=O)[C@H](CCCN)NC(=O)[C@H](C(C)C)NC(=O)[C@H](CC3CCCCC3)NC(=O)[C@H](CCN)NC(=O)[C@@H](CC(C)C)NC(=O)[C@H](C)N(C)C(=O)[C@H](CCC(N)=O)NC(=O)[C@H](Cc3ccc(-c4ccccc4)cc3)NC(=O)[C@H](Cc3ccc(C(=O)O)cc3)NC2=O)c1` [Example 5265] ({CH2CO}-[hPhe]Y(Carboxymethyl)D[Phe(3-Me)][Phe(4-COOH)][Bip]Q[NMeA][dL][Dab][Cha]V[Orn]C[Dab]-NH2; thioether N-14): the IC50 stood at 0.03 µM. Take `CC(C)C[C@@H]1NC(=O)[C@H](Cc2c[nH]c3ccccc23)NC(=O)[C@H](CC(=O)O)NC(=O)[C@H](Cc2ccc(C(=O)O)cc2)NC(=O)[C@H](Cc2ccc(OCC(=O)O)cc2)NC(=O)CSC[C@@H](C(=O)N[C@@H](CCCN)C(N)=O)NC(=O)[C@H](C(C)C)NC(=O)[C@H]([C@@H](C)O)NC(=O)[C@H](CC2CCCCC2)NC(=O)[C@H](CCN)NC(=O)[C@@H](CC(C)C)NC(=O)[C@H](C)N(C)C(=O)[C@H](C(C)C)NC(=O)[C@H](Cc2ccc(-c3ccccc3)cc2)NC1=O` [Example 5140] ({CH2CO}-Y(Carboxymethyl)[Phe(4-COOH)]DWL[Bip]V[NMeA][dL][Dab][Cha]TVC[Orn]-NH2; thioether N-14): the IC50 was 0.01 µM. As to `CC(C)C[C@H]1NC(=O)[C@H](C)N(C)C(=O)[C@H](Cc2ccc(C(=O)O)cc2)NC(=O)[C@H](Cc2ccc(-c3ccccc3)cc2)NC(=O)[C@H](CCc2ccccc2)NC(=O)[C@H](Cc2cccc(C(F)(F)F)c2)NC(=O)[C@H](CC(=O)N[C@@H](CC(=O)O)C(=O)O)NC(=O)[C@H](Cc2ccc(C(=O)O)cc2)NC(=O)[C@H](CN2CCOCC2)NC(=O)CSC[C@@H](C(=O)N[C@@H](CCN)C(N)=O)NC(=O)[C@H](CCC(N)=O)NC(=O)[C@H](C(C)C)NC(=O)[C@H](CC2CCCCC2)NC(=O)[C@H](CCN)NC1=O` [Example 5281] ({CH2CO}-[Ala(morpholin-4-yl)][Phe(4-COOH)]D(Asp)[Phe(3-CF3)][hPhe][Bip][Phe(4-COOH)][NMeA][dL][Dab][Cha]VQC[Dab]-NH2; thioether N-14), the IC50 is 0.16 µM.

The assay is the same for the next values; noted with them: Jurkat-PD-1 cells, Alexa fluor-647 labeled PD-L1-Ig 177 nM; nM; read-out: CBA Method 3.
On to `CC(C)C[C@H]1NC(=O)[C@H](C)N(C)C(=O)[C@H](Cc2ccc(C(=O)O)cc2)NC(=O)[C@H](Cc2ccc(-c3ccccc3)cc2)NC(=O)[C@H](Cc2ccc(C(N)=O)cc2)NC(=O)[C@H](Cc2cccc(C(F)(F)F)c2)NC(=O)[C@H](CC(=O)O)NC(=O)[C@H](Cc2ccc(C(=O)O)cc2)NC(=O)[C@H]([C@H](C)N)NC(=O)CSC[C@@H](C(=O)N[C@@H](CCN)C(N)=O)NC(=O)[C@H](CC(N)=O)NC(=O)[C@H](C(C)C)NC(=O)[C@H](CC2CCCCC2)NC(=O)[C@H](CCN)NC1=O` [Example 5101] ({CH2CO}-[Abu(3S-NH2)][Phe(4-COOH)]D[Phe(3-CF3)][Phe(4-CONH2)][Bip][Phe(4-COOH)][NMeA][dL][Dab][Cha]VNC[Dab]-NH2; thioether N-14), for which the IC50 was found to be 0.0037 µM. Turning to `Cc1cccc(C[C@@H]2NC(=O)[C@H](CC(=O)O)NC(=O)[C@H](Cc3ccc(OCC(=O)O)cc3)NC(=O)[C@H](Cc3cccc(C(F)(F)F)c3)NC(=O)CSC[C@@H](C(=O)N[C@@H](CCN)C(N)=O)NC(=O)[C@H](CCCN)NC(=O)[C@H](C(C)C)NC(=O)[C@H](CC3CCCCC3)NC(=O)[C@H](CCN)NC(=O)[C@@H](CC(C)C)NC(=O)[C@H](C)N(C)C(=O)[C@H](CCC(N)=O)NC(=O)[C@H](Cc3ccc(-c4ccccc4)cc3)NC(=O)[C@H](Cc3ccc(C(=O)O)cc3)NC2=O)c1` [Example 5276] ({CH2CO}-[Phe(3-CF3)]Y(Carboxymethyl)D[Phe(3-Me)][Phe(4-COOH)][Bip]Q[NMeA][dL][Dab][Cha]V[Orn]C[Dab]-NH2; thioether N-14), the IC50 was found to be 0.0011 µM. On the same count and under the same terms, for `CC(=O)Nc1ccc(-c2ccc(C[C@@H]3NC(=O)[C@H](Cc4cccc(C(F)(F)F)c4)NC(=O)[C@H](CC(=O)O)NC(=O)[C@H](Cc4ccc(C(=O)O)cc4)NC(=O)[C@H]([C@@H](C)N)NC(=O)CSC[C@@H](C(=O)N[C@@H](CCN)C(N)=O)NC(=O)[C@H](CCC(=O)O)NC(=O)[C@H](C(C)C)NC(=O)[C@H](CC4CCCCC4)NC(=O)[C@H](CCN)NC(=O)[C@@H](CC(C)C)NC(=O)[C@H](C)N(C)C(=O)[C@H](Cc4ccc(OCC(=O)O)cc4)NC(=O)[C@H](Cc4ccc(-c5ccccc5)cc4)NC3=O)cc2)cc1` [Example 5162] ({CH2CO}-[Abu(3R-NH2)][Phe(4-COOH)]D[Phe(3-CF3)][Bip(4'-NHAc)][Bip]Y(Carboxymethyl)[NMeA][dL][Dab][Cha]VEC[Dab]-NH2; thioether N-14) the value was 0.0005 µM.
